In brackets after ≈: the same amount, converted by molar mass. Activity calls are given as the source filed them. The calls are words filed in the database; no cut-off is given here.
The compounds below were run on Moraxella catarrhalis (assay: Antimicrobial activity against Moraxella catarrhalis FH6810 after 18 hrs by micro broth dilution assay).
Assay type: functional

| SMILES | MIC [µg/mL] | Activity |
| --- | --- | --- |
| CCCCCCC[C@H](O)CC(=O)N[C@H](CC(C)C)C(=O)N[C@H](CC(=O)O)C(=O)N[C@H]1C(=O)N[C@H](CC(C)C)C(=O)N[C@H](CC(C)C)C(=O)N[C@H](CO)C(=O)N[C@@H](CC(C)C)C(=O)N[C@H](CCC(N)=O)C(=O)N[C@@H](CC(C)C)C(=O)N[C@@H]([C@@H](C)CC)C(=O)N[C@@H](CCC(=O)O)C(=O)O[C@@H]1C | 32 (≈ 22.7 µM) |  |
| CCCCCCC[C@H](O)CC(=O)N[C@H](CC(C)C)C(=O)N[C@H](CC(=O)O)C(=O)N[C@H]1C(=O)N[C@H](CC(C)C)C(=O)N[C@H](CC(C)C)C(=O)N[C@H](CO)C(=O)N[C@@H](CC(C)C)C(=O)N[C@H](CCC(N)=O)C(=O)N[C@@H](CC(C)C)C(=O)N[C@@H](CC(C)C)C(=O)N[C@@H](CCC(=O)O)C(=O)O[C@@H]1C | > 128 |  |
| CCCCCCCCC[C@H](O)CC(=O)N[C@H](CC(C)C)C(=O)N[C@H](CC(=O)O)C(=O)N[C@H]1C(=O)N[C@H](CC(C)C)C(=O)N[C@H](CC(C)C)C(=O)N[C@H](CO)C(=O)N[C@@H](CC(C)C)C(=O)N[C@H](CCC(N)=O)C(=O)N[C@@H](CC(C)C)C(=O)N[C@@H]([C@@H](C)CC)C(=O)N[C@@H](CCC(=O)O)C(=O)O[C@@H]1C | 4 (≈ 2.78 µM) |  |
| CCCCC[C@H](O)CC(=O)N[C@H](CC(C)C)C(=O)N[C@H](CCC(=O)O)C(=O)N[C@H]1C(=O)N[C@H](CC(C)C)C(=O)N[C@H](CC(C)C)C(=O)N[C@H](CO)C(=O)N[C@@H](CC(C)C)C(=O)N[C@H](CCC(N)=O)C(=O)N[C@@H](CC(C)C)C(=O)N[C@@H](CC(C)C)C(=O)N[C@@H](CCC(=O)O)C(=O)O[C@@H]1C | > 128 |  |
| CCCCC[C@H](O)CC(=O)N[C@H](CC(C)C)C(=O)N[C@H](CC(=O)O)C(=O)N[C@H]1C(=O)N[C@H](CC(C)C)C(=O)N[C@H](CC(C)C)C(=O)N[C@H](CO)C(=O)N[C@@H](CC(C)C)C(=O)N[C@H](CCC(N)=O)C(=O)N[C@@H](CC(C)C)C(=O)N[C@@H]([C@@H](C)CC)C(=O)N[C@@H](CCC(=O)O)C(=O)O[C@@H]1C |  | inactive |
| CCCCCCC[C@H](O)CC(=O)N[C@H](CC(C)C)C(=O)N[C@H](CC(=O)O)C(=O)N[C@H]1C(=O)N[C@H](CC(C)C)C(=O)N[C@H](CC(C)C)C(=O)N[C@H](CO)C(=O)N[C@@H](CC(C)C)C(=O)N[C@H](CCC(N)=O)C(=O)N[C@@H](CC(C)C)C(=O)N[C@@H](C(C)C)C(=O)N[C@@H](CCC(=O)O)C(=O)O[C@@H]1C | > 128 |  |
| CCCCCCC[C@H](O)CC(=O)N[C@H](CC(C)C)C(=O)N[C@H](CCC(=O)O)C(=O)N[C@H]1C(=O)N[C@H](CC(C)C)C(=O)N[C@H](CC(C)C)C(=O)N[C@H](CO)C(=O)N[C@@H](CC(C)C)C(=O)N[C@H](CCC(N)=O)C(=O)N[C@@H](CC(C)C)C(=O)N[C@@H]([C@@H](C)CC)C(=O)N[C@@H](CCC(=O)O)C(=O)O[C@@H]1C | > 128 |  |
